Reference: patent publication US9440957B2, “Compounds and compositions for modulating EGFR Activity” (Novartis AG, priority 2012, dated 2016)
Where two headings read alike, the source gives them in different places.

How the values were obtained:
EGFR(L858R/T790M) = target: T1, EGFR(L858R/T790M) (Homo sapiens, UniProt P00533, L858R/T790M); assay: EGFR biochemical assay (HTRF), IC50 determinations
T1 construct: purchased from Carna (GST-a.a. 669-1210)
How it was run: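 HTRF kinase reaction with biotin-TK peptide at room temperature, quenched with EDTA at 60 min and detected with PT66K/SAXL after 1 h. Without preincubation, enzyme starts the reaction with compound, ATP and peptide present. With preincubation, compound, enzyme and peptide sit at room temperature for a set time before ATP is added.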

[1] = target: human EGFR WT (NIH/3T3 cells, EGF-induced) (Homo sapiens, UniProt P00533); assay: EGFR target modulation in engineered NIH/3T3 cell lines (phospho-EGFR Y1068 AlphaLISA), EGFR WT; assay type: cell-based; details: engineered NIH/3T3 cells, read-out: NIH3T3 IC50 (μM) EGFR (WT)
How it was run: (§1)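 Engineered NIH/3T3 cells expressing EGFR variants treated 3 h at 37 °C with 12-point 1:3 compound series (top stock 10 μM); only WT cells stimulated with 50 ng/ml EGF for 5 min before lysis. Phospho-Y1068 measured by AlphaLISA with total-EGFR antibody; IC50 from non-linear fitting.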

[2] = target: human EGFR L858R (NIH/3T3 cells) (Homo sapiens, UniProt P00533, L858R); assay: EGFR target modulation in engineered NIH/3T3 cell lines (phospho-EGFR Y1068 AlphaLISA), EGFR L858R; assay type: cell-based; details: engineered NIH/3T3 cells, read-out: NIH3T3 IC50 (μM) EGFR (L858R)
How it was run: as §1

[3] = target: human EGFR L858R/T790M (NIH/3T3 cells) (Homo sapiens, UniProt P00533, L858R/T790M); assay: EGFR target modulation in engineered NIH/3T3 cell lines (phospho-EGFR Y1068 AlphaLISA), EGFR L858R/T790M; assay type: cell-based; details: engineered NIH/3T3 cells, read-out: NIH3T3 IC50 (μM) EGFR (L858R/T790M)
How it was run: as §1

H1975 (EGFR L858/T790M) = H1975 (EGFR L858/T790M) (Homo sapiens, UniProt P00533, L858R/T790M); assay: EGFR target modulation in H1975 cell line (phospho-EGFR Y1173 ELISA); assay type: cell-based
Procedure: (§2) EGFR Target Modulation in H1975, H3255 and HCC827 Cell Lines Tissue Culture. Cells were maintained in 10% FBS/RPMI supplemented with 100 μg/ml Penicillin/Streptomycin (Hyclone #SH30236.01). […] The cells were allowed to incubate overnight in a 37° C., 5% CO2 humidified tissue culture incubator. […] The serial diluted compounds were transferred to the plate containing cells by using a 50 nl Pin Head device (Perkin Elmer) and the cells were placed back in the incubator for 3 hours. Phospho-EGFR ([…]) Target Modulation Assay. The media was reduced to 20 ul using a Bio-Tek ELx 405 SelectTM plate washer. […] The plates were shaken at 4° C. for 20 minutes. An aliquot of 25 ul from each well was transferred to pEGFR(Y1173) ELISA plates for analysis. Phospho-EGFR ([…]) ELISA. Solid white high-binding ELISA plates (Greiner #781074) were coated with 5 ug/ml anti-EGFR capture antibody (R&D Systems #AF231) overnight in 50 mM carbonate/bicarbonate pH 9.5 buffer. Plates were blocked with 1% BSA (Sigma #A7030) in PBS for 1 hour at room temperature. Wash steps were carried out with a Bio-Tek ELx405 SelectTM using 4 cycles of 100 ul TBS-T (20 mM Tris, 137 mM NaCl, 0.05% Tween-20) per well. […] Lysis was allowed to occur for 20 minutes on ice. A 25 ul aliquot was added to each well of the blocked ELISA plate and incubated overnight at 4° C. with gentle shaking. […] After washing, 1:2,000 anti-rabbit-HRP (Cell Signaling #7074) in 0.2% BSA/TBS-T was added and incubated for 1 hour at room temperature. Chemiluminescent detection was carried out with SuperSignal ELISA Pico substrate (ThermoScientific #37069). Signal was read on EnVision plate reader using built-in UltraLUM setting. Data Analysis. Control cells treated with EGF were set to 100% maximum response. […] With these parameters, the IC50's for each compound in each cell line was calculated using non-linear curve fitting analysis.

H3255 (EGFR L858R) = H3255 (EGFR L858R) (Homo sapiens, UniProt P00533, L858R); assay: EGFR target modulation in H3255 cell line (phospho-EGFR Y1173 ELISA); assay type: cell-based
Procedure: as §2

HEKn (EGFR WT) = HEKn (EGFR WT) (Homo sapiens, UniProt P00533); assay: EGFR target modulation in HEKn (EGFR-WT) cell line (phospho-EGFR Y1173 ELISA); assay type: cell-based; details: value outside parentheses
Procedure: EGFR Target Modulation in HEKn (EGFR-WT) Cell Line Tissue Culture. Human neonatal epithelial keratinocytes (Invitrogen #C-001-5C) were maintained in EpiLife media (Invitrogen #[…]) supplemented with growth factors (Invitrogen #S-001-5). Cells were harvested with 0.05% Trypsin/EDTA (Hyclone #SH30236.01) and quenched with 5% FBS/EpiLife media. […] The serial diluted compounds were transferred to the plate containing cells by using a 50 nl Pin Head device (Perkin Elmer) and the cells were placed back in the incubator for 3 hours. […] Phospho-EGFR (Y1173) ELISA. Solid white high-binding ELISA plates (Greiner #781074) were coated with 5 ug/ml anti-EGFR capture antibody (R&D Systems #AF231) overnight in 50 mM carbonate/bicarbonate pH 9.5 buffer. […] Wash steps were carried out with a Bio-Tek ELx405 SelectTM using 4 cycles of 100 ul TBS-T (20 mM Tris, 137 mM NaCl, 0.05% Tween-20) per well. […] Lysis was allowed to occur for 20 minutes on ice. A 25 ul aliquot was added to each well of the blocked ELISA plate and incubated overnight at 4° C. with gentle shaking. […] After washing, 1:2,000 anti-rabbit-HRP (Cell Signaling #7074) in 0.2% BSA/TBS-T was added and incubated for 1 hour at room temperature. Chemiluminescent detection was carried out with SuperSignal ELISA Pico substrate (ThermoScientific #37069). Signal was read on EnVision plate reader using built-in UltraLUM setting. Data Analysis. Control cells treated with EGF were set to 100% maximum response. […] With these parameters, the IC50's for each compound in each cell line was calculated using non-linear curve fitting analysis.

[4] = EGFR (L858R/T790M) with 90 min pre-incubation, read-out: IC50 (μM) Column B
[5] = EGFR (L858R/T790M) with no pre-incubation, read-out: IC50 (μM) Column A

Sequence of HEKn (EGFR WT) (P00533 25-1210): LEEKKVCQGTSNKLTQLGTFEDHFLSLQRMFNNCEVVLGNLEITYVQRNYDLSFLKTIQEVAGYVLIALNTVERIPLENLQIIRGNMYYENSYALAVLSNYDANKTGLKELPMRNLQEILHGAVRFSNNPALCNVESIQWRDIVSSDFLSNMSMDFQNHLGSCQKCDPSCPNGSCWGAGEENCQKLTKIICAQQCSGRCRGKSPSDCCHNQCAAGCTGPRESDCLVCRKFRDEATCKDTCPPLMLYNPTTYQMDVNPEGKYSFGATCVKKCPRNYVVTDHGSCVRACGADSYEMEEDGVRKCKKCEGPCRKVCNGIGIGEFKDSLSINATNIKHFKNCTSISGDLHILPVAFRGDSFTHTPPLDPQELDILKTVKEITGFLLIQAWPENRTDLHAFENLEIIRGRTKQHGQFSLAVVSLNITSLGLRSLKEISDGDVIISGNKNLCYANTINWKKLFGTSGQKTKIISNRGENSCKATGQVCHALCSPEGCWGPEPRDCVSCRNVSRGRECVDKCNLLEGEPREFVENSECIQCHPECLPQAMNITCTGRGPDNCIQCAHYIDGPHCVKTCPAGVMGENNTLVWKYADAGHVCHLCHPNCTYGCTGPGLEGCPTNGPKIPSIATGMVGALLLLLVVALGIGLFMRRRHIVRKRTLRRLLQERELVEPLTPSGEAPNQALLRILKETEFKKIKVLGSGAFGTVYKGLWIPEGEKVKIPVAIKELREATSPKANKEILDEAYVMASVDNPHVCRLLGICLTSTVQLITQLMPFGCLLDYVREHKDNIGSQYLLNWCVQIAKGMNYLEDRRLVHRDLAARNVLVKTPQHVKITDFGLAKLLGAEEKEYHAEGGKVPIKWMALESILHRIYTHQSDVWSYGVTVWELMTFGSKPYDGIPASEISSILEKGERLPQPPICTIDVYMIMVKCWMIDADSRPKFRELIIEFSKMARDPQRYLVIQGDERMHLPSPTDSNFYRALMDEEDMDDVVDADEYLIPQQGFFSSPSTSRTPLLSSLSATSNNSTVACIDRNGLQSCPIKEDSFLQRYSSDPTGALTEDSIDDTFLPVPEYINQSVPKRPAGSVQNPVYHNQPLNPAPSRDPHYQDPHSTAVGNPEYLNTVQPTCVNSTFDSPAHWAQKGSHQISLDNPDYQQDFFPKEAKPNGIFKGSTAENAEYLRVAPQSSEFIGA
Sequence of human EGFR WT (NIH/3T3 cells, EGF-induced) (P00533 25-1210): as above
Sequence of H1975 (EGFR L858/T790M) (P00533 25-1210 T790M/L858R): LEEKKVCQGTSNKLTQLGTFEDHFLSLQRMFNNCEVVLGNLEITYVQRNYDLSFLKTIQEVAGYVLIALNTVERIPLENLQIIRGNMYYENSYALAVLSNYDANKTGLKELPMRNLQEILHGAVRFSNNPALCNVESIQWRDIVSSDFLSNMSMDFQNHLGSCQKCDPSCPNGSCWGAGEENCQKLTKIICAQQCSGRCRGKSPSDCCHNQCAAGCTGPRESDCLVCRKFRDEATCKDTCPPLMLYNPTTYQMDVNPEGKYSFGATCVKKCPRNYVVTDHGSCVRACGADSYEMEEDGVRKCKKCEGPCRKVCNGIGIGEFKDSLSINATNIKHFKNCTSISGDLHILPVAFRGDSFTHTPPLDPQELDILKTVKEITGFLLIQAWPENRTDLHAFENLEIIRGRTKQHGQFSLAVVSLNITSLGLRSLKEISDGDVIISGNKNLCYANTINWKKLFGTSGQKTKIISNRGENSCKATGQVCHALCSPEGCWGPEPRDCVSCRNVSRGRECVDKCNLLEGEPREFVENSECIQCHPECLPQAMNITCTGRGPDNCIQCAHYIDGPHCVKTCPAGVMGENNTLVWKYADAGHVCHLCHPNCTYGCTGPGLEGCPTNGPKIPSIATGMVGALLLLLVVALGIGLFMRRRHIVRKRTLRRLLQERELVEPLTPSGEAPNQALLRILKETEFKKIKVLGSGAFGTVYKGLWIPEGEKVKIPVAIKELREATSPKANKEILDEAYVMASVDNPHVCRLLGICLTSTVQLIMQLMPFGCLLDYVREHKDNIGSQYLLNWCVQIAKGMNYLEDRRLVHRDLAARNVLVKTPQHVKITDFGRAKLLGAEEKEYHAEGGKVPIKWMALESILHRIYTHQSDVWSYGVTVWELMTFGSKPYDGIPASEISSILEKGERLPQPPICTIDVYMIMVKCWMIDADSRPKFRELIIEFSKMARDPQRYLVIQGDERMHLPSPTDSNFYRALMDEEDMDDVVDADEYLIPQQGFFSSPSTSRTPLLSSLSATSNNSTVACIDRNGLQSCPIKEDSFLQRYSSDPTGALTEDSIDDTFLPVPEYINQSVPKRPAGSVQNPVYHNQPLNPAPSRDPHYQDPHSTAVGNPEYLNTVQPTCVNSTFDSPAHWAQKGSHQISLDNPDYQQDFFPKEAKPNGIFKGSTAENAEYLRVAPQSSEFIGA
Sequence of human EGFR L858R/T790M (NIH/3T3 cells) (P00533 25-1210 T790M/L858R): as above

SMILES	IC50 (EGFR(L858R/T790M); [4])	IC50 (EGFR(L858R/T790M); [5])	IC50 [1]	IC50 [2]	IC50 [3]	IC50 (H1975 (EGFR L858/T790M))	IC50 (H3255 (EGFR L858R))	IC50 (HEKn (EGFR WT))
C=CC(=O)N1CCCC[C@@H](n2c(NC(=O)c3cccc(C(F)(F)F)c3)nc3cccc(C)c32)C1 (single isomer, unassigned) [Example 21-4]	< 0.001 µM	0.006 µM	0.239 µM	0.004 µM	0.002 µM	1 nM	13 nM	285 nM
Cc1ncc(C(=O)Nc2nc3cccc(C)c3n2C2CCCCN(C(=O)/C=C/CN(C)C)C2)s1 (single isomer, unassigned) [Example 21-8B]	< 0.001 µM	0.006 µM	0.016 µM	0.001 µM	0.002 µM	4 nM	2 nM	95 nM
Cc1cc(C(=O)Nc2nc3cccc(Cl)c3n2[C@@H]2CCCCN(C(=O)/C=C/CN3CC[C@@H](F)C3)C2)ccn1 [Example 3-1]	< 0.001 µM	0.005 µM	0.235 µM	0.003 µM	0.004 µM	6 nM	7 nM	340 nM
Cc1cc(C(=O)Nc2nc3cccc(Cl)c3n2[C@@H]2CCCCN(C(=O)/C=C/CN3CC[C@H](F)C3)C2)ccn1 [Example 3-2]	< 0.001 µM	0.007 µM	0.303 µM	0.006 µM	0.006 µM	9 nM	11 nM	720 nM
Cc1cc(C(=O)Nc2nc3cccc(C)c3n2[C@@H]2CCCCN(C(=O)/C=C/CN3CC[C@@H](F)C3)C2)ccn1 [Example 3-10]	< 0.001 µM	0.006 µM	–	–	–	8 nM	13 nM	620 nM
O=C(Nc1nc2cccc(Cl)c2n1[C@@H]1CCCCN(C(=O)/C=C/CN2CC[C@@H](F)C2)C1)c1ccnnc1 [Example 3-11]	< 0.001 µM	0.005 µM	–	–	–	7 nM	9 nM	169 nM
Cc1cc(C(=O)Nc2nc3cccc(Cl)c3n2[C@@H]2CCCCN(C(=O)/C=C/CN3CCC3)C2)ccn1 [Example 3-12]	0.011 µM	0.133 µM	1.13 µM	0.05 µM	0.123 µM	186 nM	200 nM	> 10000 nM
Cc1cc(C(=O)Nc2nc3cccc(Cl)c3n2[C@@H]2CCCCN(C(=O)/C=C/CN3CC(O)C3)C2)ccn1 [Example 3-13]	< 0.001 µM	0.007 µM	0.41 µM	0.014 µM	0.022 µM	19 nM	12 nM	900 nM
Cc1cccc2nc(NC(=O)c3ccnc(C(F)(F)F)c3)n([C@@H]3CCCCN(C(=O)/C=C/CN(C)C)C3)c12 [Example 8, (R,E)-N-(1-(1-(4-(dimethylamino)but-2-enoyl)azepan-3-yl)-7-methyl-1H-benzo[d]imidazol-2-yl)-2-(trifluoromethyl)isonicotinamide]	–	–	0.021 µM	0.001 µM	0.001 µM	1 nM	2 nM	82 nM
C=CC(=O)N1CCCC[C@@H](n2c(NC(=O)c3cccc(F)c3F)nc3cc(CN4CC[C@@H](OC)C4)cc(C)c32)C1 [Example 17-160]	< 0.001 µM	0.007 µM	–	–	–	1 nM	17 nM	237 nM
COc1ccc2nc(NC(=O)c3ccnc(C)c3)n([C@@H]3CCCCN(C(=O)/C=C/CN(C)C)C3)c2c1Cl [Example 17-177]	< 0.001 µM	0.003 µM	–	–	–	4 nM	4 nM	93 nM
COc1cc2nc(NC(=O)c3cc(C)nc(C)c3)n([C@@H]3CCCCN(C(=O)/C=C/CN(C)C)C3)c2cc1Cl [Example 17-179]	0.012 µM	0.23 µM	–	–	–	234 nM	188 nM	5400 nM
